According to US5434052A, “Complementation assay for drug screening” (Microgenics Corporation, priority 1993, dated 1995):
Each block holds one molecule with its values, some of them ahead of it.

Legend:
[1] = target: T1, bovine Folate Binding Protein (Bos taurus, UniProt P02702); test: Inhibition of ED14-Folate conjugate with folate binding protein; competition by folic acid sample, β-galactosidase complementation; set-up: dose or concentration left out as unconfirmed; settings: folate binding protein diluted approximately 1:2500
T1 construct: purchased Biochemical Inc., Englewood, Colo
T1 sequence (P02702 20-241): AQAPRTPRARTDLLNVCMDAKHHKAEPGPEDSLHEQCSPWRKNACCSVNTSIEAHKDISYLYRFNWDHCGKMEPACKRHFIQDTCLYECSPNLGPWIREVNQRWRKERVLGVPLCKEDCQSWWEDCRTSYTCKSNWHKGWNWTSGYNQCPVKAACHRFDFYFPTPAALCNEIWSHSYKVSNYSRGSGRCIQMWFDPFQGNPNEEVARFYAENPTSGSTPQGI
Method: Binding Protein Reagent consists of bovine Folate Binding Protein (Biochemical Inc., Englewood, Colo.) diluted approximately 1:2500 in 150 mM potassium phosphate, 50 mM sodium borate, 1% BSA (B12-Grade BSA, Sigma, St. Louis, Mo.), 1% Lubrol and 20 mM sodium azide, pH 7.0. ED14-Folate Conjugate/Substrate Reagent contains approximately 6.3 nM ED-Folate, 1.0 mg/ml OCNPG (o-chloro-p-nitrophenol galactopyranoside), 100 mM sodium phosphate, 150 mM potassium phosphate, 10 mM ethylene glycol tetraacetic acid, 2.5 mM dithiothreitol, 20 mM sodium azide, 0.05% Tween 20 with 0.05 mM dithiothreitol, pH 7.0. EA Reagent consists of a recombinant protein resembling the carboxyl-terminal end of β-galactosidase in 100 mM sodium phosphate, 150 mM potassium phosphate, 10 mM ethylene glycol tetraacetic acid, 5 mM magnesium acetate, 20 mM sodium azide, 0.05% Tween 20 with 0.05 mM dithiothreitol pH 7.0. EA concentration is approximately 2.2 μM. The assay procedure involves mixing of 300 μl of folic acid sample with 100 μl of binding protein reagent and incubation for 15 min at room temperature. This becomes the pretreated sample. An instrument (clinical chemistry analyzer) is programmed to deliver 30 μl of pretreated sample with 100 μl of ED-Folate reagent for 2 to 5 min at 37° C. This is followed by the addition of 220 μl of EA reagent to the reaction mixture by the instrument and the enzyme rate is read by absorbance change at […]. The following table indicates a typical assay performance.

[2] = target: T2, (Homo sapiens, UniProt P05543); test: Inhibition of ED4-T4 conjugate by thyroxin binding globulin, β-galactosidase complementation; settings: 18 nM ED4-T4; for Observed Enzyme Rate: 420 nM, 37° C.
T2 construct: purchased Protus Laboratories, South San Francisco, CA
T2 sequence (P05543 21-415): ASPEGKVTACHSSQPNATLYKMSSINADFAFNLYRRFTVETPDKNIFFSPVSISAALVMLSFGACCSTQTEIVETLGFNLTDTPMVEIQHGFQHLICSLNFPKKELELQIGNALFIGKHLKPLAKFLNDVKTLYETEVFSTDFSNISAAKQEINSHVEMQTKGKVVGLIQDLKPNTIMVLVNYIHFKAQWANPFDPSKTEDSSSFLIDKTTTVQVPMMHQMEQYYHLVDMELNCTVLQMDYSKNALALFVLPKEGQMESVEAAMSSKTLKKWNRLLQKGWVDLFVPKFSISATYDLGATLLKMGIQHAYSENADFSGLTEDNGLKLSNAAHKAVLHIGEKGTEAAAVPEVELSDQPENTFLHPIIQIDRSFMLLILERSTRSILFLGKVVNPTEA
Method: Buffer=20 mM NaPO4 10 mM EGTA, 2 mM MgOAc, 3.6% Glycerol, 5 mM Sucrose, 20 mM NaN3, pH 7.0
Reagent=5U EA/Test or 31.25 U/ml of EA in EA Buffer
Buffer=20 mM NaPO4, 10 mM EGTA, 6.25 mg/ml ONPG, 0.05% Tween/DTT, 20 mM NaN3, pH 7.0
Reagent=18 nM ED4-T4 system concentration or 112.5 nM ED4-T4 in ED reagent buffer
Machine Program Parameters:
The receptor was purified TBG from Protus Laboratories, South San Francisco, CA diluted in PBS.

% Inhibition of ED14-Folate Conjugate ([1]; folate in sample 20): 18.8%
Observed Enzyme Rate ([1]; folate in sample 20): 290
% Inhibition of ED14-Folate Conjugate ([1]; folate in sample 200): 0.0%
Observed Enzyme Rate ([1]; folate in sample 200): 357
Molecule: Nc1nc2ncc(CNc3ccc(C(=O)N[C@@H](CCC(=O)O)C(=O)O)cc3)nc2c(=O)[nH]1 [Folate, Folic acid]

% Inhibition ([2]; TBG receptor 18.3 μg/ml): 22%
Observed Enzyme Rate ([2]; TBG receptor 18.3 μg/ml): 367 mA/min
% Inhibition ([2]; TBG receptor 55.0 μg/ml): 68%
Observed Enzyme Rate ([2]; TBG receptor 55.0 μg/ml): 154 mA/min
B1: TBG: purified TBG from Protus Laboratories, diluted in PBS (protein, UniProt P05543 21-415, looked up)
Thyroxine-binding globulin: T2 sequence (P05543 21-415)
